Counter-ions that a name gives are not always drawn. Like-named read-outs stand apart in the source and are kept apart here.
Key:
[1] = tested on: “blank”-transfected COS-7 cells; assay: cAMP formation in control COS-7 cells; assay type: cell-based; conditions: 1 μM
Experimental: (§1) The entire coding region of the cDNAs of 5-HT4(a), 5-HT4(b), 5-HT4(c) and 5-T4(d) was subcloned into a mammalian expression vector pRC/CMV (Invitrogen, Carlsbad, Calif.). The transfections were carried out using polyethyleneimine (PEI) as described in Boussif et al. (1995). The cells were transfected using a mixture of DNA and of PEI in a ratio of 20 μmol of PEI/mg of DNA in 0.9% NaCl. For the radioligand binding assays, the COS-7 cells were seeded into culture flasks of 1.5×10^4 mm^2 one day before the transfection, at a density of 1×10^7 cells/flask, incubated for six hours with plasmid DNA (150 μg/flask) and collected 48 hours after transfection. For the measurement of cAMP formation, the COS-7 cells were seeded onto twelve-well plates one day before transfection, at a density of 5×10^5 cells/well, incubated for six hours with plasmid DNA (4 to 8 μg/well according to the experiments) and assayed 24 hours after the transfection. The cells transfected with the receptor 5-HT4 cDNA constructs were compared with the “blank”-transfected cells, which were exposed to the unmodified pRC/CMV plasmid.
(§2) To measure intracellular cAMP accumulation, the transiently transfected COS-7 cells were incubated, 24 hours after transfection, in Dulbecco's modified Eagle medium (DMEM) containing 5 mM theophylline, 10 mM HEPES and 10 μM pargyline for 15 minutes at 37° C., in the presence of 5% CO2. […] The reaction was stopped by aspiration of the medium and addition of 500 μl of ice-cold ethanol. After one hour at room temperature, the cells were scraped, and everything was collected and freeze-dried. The pellet was resuspended in 350 μl of PBS and centrifuged for 5 min at 300 g. The cAMP was quantified in the supernatant using a radioimmunological assay (E.R.I.A. assay kit from Pasteur Diagnostics 79830). Student's t tests were carried out using the program Quick TEst.

[2] = target: T1, receptor 5-HT4(a) (Homo sapiens, UniProt Q13639); assay: cAMP formation in transiently transfected COS-7 cells; assay type: cell-based; conditions: COS-7, 1 μM agonist, 15 minutes
T1 construct: The entire coding region of the cDNAs of 5-HT4(a), 5-HT4(b), 5-HT4(c) and 5-T4(d) was subcloned; expressed in transfected cells; host or cells: COS-7 cells, transient, pRC/CMV vector
T1 sequence (Q13639 1-387 isoform Q13639-2): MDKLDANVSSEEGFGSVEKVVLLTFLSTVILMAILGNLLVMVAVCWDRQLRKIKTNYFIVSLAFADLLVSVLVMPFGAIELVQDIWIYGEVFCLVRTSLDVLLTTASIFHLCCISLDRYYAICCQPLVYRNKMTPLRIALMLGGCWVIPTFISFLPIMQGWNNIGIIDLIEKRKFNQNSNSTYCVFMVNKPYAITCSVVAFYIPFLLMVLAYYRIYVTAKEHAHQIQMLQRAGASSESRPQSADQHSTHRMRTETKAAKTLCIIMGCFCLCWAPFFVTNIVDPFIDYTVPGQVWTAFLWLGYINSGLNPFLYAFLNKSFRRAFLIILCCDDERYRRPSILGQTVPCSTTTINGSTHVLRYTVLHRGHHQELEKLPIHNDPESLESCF
Experimental: as §1, §2

[3] = target: T1, receptor 5-HT4(a); assay: [3H]GR113808 radioligand binding, membranes of transiently transfected COS-7 cells
Experimental: as §1
(§3) Each flask of cells intended for the radioligand binding assays was washed twice with a phosphate buffer (PBS). The cells were then scraped, collected and centrifuged at 300 g for five minutes. The pellet was resuspended in 2.5 ml of ice-cold HEPES buffer (50 mM, pH 7.4) and homogenized with an Ultraturax tissue grinder. The lysate was then centrifuged at 40,000 g for 20 minutes at 4° C. The resulting pellet was resuspended in 15 volumes of HEPES buffer (50 mM, pH 7.4). The membrane preparations were maintained in ice and used within two hours for radioligand binding assays. The protein concentrations were determined by the method of Lowry et al., 1951, using bovine serum albumin as standard.
(§4) The saturation studies were performed using [^3H] GR113808 at 9 different concentrations ranging from 0.01 to 3.5 nM. The tubes were incubated at 25° C. for 30 minutes. The reaction-was stopped by rapid filtration, under vacuum, through Whatman GF/B filter paper using the Brandel 48R cell harvester. The filters were presoaked in a solution of PEI (0.1%) to reduce the binding to the filters. The filters were then washed with an ice-cold buffer (50 mM Tris-HCl, pH 7.4) and placed in 4 ml of “ready safe” scintillation cocktail (Beckman, Fullerton, Calif.) overnight. The radioactivity was measured using a Beckman LS 6500 C liquid scintillation counter. The binding data were analysed by computer-assisted nonlinear regression analysis (Graph Pad Prism Program, Graph Pad Software, Inc., San Diego, Calif.).
(§5) The experiments correspond to the competition of various compounds for [^3H]GR113808 binding to membranes of transiently transfected COS-7 cells. […] The estimations of affinity are given as Ki values in nM, and are determined from IC50 values obtained by computer-assisted nonlinear curve analysis (GraphPad, Prism Software). The Ki values are representative of at least two determinations.

[4] = target: T2, receptor 5-HT4(b) (Homo sapiens, UniProt Q13639); assay: as above
T2 construct: The entire coding region of the cDNAs of 5-HT4(a), 5-HT4(b), 5-HT4(c) and 5-T4(d) was subcloned; expressed in transfected cells; host or cells: COS-7 cells, transient, pRC/CMV vector; cDNA amplified from human brain and ileum RNA
T2 sequence (Q13639 whole entry): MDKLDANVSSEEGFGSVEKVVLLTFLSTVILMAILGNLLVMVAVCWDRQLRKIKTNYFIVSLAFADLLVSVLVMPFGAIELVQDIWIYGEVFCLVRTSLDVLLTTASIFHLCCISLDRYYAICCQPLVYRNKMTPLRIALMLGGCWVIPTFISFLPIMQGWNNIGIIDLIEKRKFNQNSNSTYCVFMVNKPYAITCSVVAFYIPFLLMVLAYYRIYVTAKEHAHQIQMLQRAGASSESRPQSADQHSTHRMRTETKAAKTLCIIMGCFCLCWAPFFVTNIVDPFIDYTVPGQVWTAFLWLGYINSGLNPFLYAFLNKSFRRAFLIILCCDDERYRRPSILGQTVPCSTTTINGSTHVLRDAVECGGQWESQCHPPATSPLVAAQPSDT
Experimental: as §1, §3, §4, §5

[5] = target: T3, receptor 5-HT4(d) (Homo sapiens, UniProt Q13639); assay: as above; set-up: The entire coding region of the cDNAs of 5-HT4(a), 5-HT4(b), 5-HT4(c) and 5-T4(d) was subcloned; expressed in transfected cells; host or cells: COS-7 cells, transient, pRC/CMV vector; cDNA amplified from human brain and ileum RNA
T3 sequence (Q13639 1-360 isoform Q13639-3): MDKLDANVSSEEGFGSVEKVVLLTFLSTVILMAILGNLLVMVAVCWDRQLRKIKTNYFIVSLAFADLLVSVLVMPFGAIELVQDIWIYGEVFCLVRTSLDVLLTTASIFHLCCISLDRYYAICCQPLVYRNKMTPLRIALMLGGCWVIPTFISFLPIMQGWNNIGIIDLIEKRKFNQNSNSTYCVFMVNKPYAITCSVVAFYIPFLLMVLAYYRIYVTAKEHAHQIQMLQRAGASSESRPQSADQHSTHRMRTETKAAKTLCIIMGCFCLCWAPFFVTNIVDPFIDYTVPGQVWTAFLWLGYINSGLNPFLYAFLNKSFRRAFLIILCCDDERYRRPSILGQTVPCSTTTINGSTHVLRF
Experimental: as §1, §3, §4, §5

[6] = target: T4, receptor 5-HT4(c) (Homo sapiens, UniProt Q13639); assay: as above; set-up: The entire coding region of the cDNAs of 5-HT4(a), 5-HT4(b), 5-HT4(c) and 5-T4(d) was subcloned; expressed in transfected cells; host or cells: COS-7 cells, transient, pRC/CMV vector; cDNA amplified from human brain and ileum RNA
T4 sequence (Q13639 1-380 isoform Q13639-4): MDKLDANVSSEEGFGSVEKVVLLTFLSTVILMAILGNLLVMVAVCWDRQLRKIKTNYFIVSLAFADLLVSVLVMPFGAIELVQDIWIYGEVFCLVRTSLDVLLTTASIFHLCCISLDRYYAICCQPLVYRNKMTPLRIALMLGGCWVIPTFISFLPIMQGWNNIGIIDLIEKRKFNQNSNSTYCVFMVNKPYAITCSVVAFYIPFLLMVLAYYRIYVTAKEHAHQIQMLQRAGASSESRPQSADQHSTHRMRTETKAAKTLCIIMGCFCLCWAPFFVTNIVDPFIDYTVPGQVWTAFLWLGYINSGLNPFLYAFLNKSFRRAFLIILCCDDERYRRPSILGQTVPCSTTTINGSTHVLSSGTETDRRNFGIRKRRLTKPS
Experimental: as §1, §3, §4, §5

[7] = tested on: cells expressing the isoforms of the receptor 5-HT4; assay: cAMP formation in transiently transfected COS-7 cells, statement for all isoforms together; assay type: cell-based, human
Experimental: The entire coding region of the cDNAs of 5-HT4(a), 5-HT4(b), 5-HT4(c) and 5-T4(d) was subcloned into a mammalian expression vector pRC/CMV (Invitrogen, Carlsbad, Calif.). The transfections were carried out using polyethyleneimine (PEI) as described in Boussif et al. (1995). The cells were transfected using a mixture of DNA and of PEI in a ratio of 20 μmol of PEI/mg of DNA in 0.9% NaCl. […] The cells transfected with the receptor 5-HT4 cDNA constructs were compared with the “blank”-transfected cells, which were exposed to the unmodified pRC/CMV plasmid. […] The reaction was stopped by aspiration of the medium and addition of 500 μl of ice-cold ethanol. After one hour at room temperature, the cells were scraped, and everything was collected and freeze-dried. The pellet was resuspended in 350 μl of PBS and centrifuged for 5 min at 300 g. The cAMP was quantified in the supernatant using a radioimmunological assay (E.R.I.A. assay kit from Pasteur Diagnostics 79830). Student's t tests were carried out using the program Quick TEst.

[8] = target: T3, receptor 5-HT4(d); assay: [3H]GR113808 saturation binding, membranes of stably transfected CHO cells; set-up: The entire coding region of the cDNAs of 5-HT4(a), 5-HT4(b), 5-HT4(c) and 5-T4(d) was subcloned; expressed in transfected cells; pRC/CMV vector; cDNA amplified from human brain and ileum RNA; conditions: 30 minutes at 25° C., read-out: Kd, saturation analysis
Experimental: (§6) The entire coding region of the 5-HT4(c) and 5-HT4(d) cDNAs was subcloned into a mammalian expression vector pRC/CMV (Invitrogen, Carlsbad, Calif.). The CHO cells are stably transfected by electroporation (250 V, 960 μF) with the plasmid PRc/CMV, containing the clone h5-HT4(c) or h5-HT4(d), cleaved with the restriction enzyme Kpn1 (10 μg of plasmid for 10^7 cells). The cells are cultured in HAM-F12 medium supplemented with 10% of heat-inactivated foetal calf serum. […] Twelve days later, the clones are individualized and cultured in 12-well plates. Clone selection is carried out by studying the stimulation of the cAMP formed in the presence of 1 μM serotonin. […]
(§7) Each flask of cells intended for the radioligand binding assays was washed twice with a phosphate buffer (PBS). […] The protein concentrations were determined by the method of Lowry et al., 1951, using bovine serum albumin as standard.
(§8) The radioligand binding studies were carried out in 500 μl of buffer (50 mM HEPES, pH 7.4) [lacuna] […] The filters were then washed with an ice-cold buffer (50 mM Tris-HCl, pH 7.4) and placed in 4 ml of “ready safe” scintillation cocktail (Beckman, Fullerton, Calif.) overnight. The radioactivity was measured using a Beckman LS 6500 C liquid scintillation counter. […]

[9] = target: T4, receptor 5-HT4(c); assay: as above; set-up: The entire coding region of the cDNAs of 5-HT4(a), 5-HT4(b), 5-HT4(c) and 5-T4(d) was subcloned; expressed in transfected cells; pRC/CMV vector; cDNA amplified from human brain and ileum RNA; conditions: 30 minutes at 25° C., read-out: Kd, saturation analysis
Experimental: as §6, §7, §8

[10] = 5-HT4(a), COS-7 membranes, [3H]GR113808 at 50% of Kd, read-out: Ki, competition for [3H]GR113808 binding
[11] = 5-HT4(b), COS-7 membranes, [3H]GR113808 at 50% of Kd, read-out: Ki, competition for [3H]GR113808 binding
[12] = 5-HT4(d), COS-7 membranes, [3H]GR113808 at 50% of Kd, read-out: Ki, competition for [3H]GR113808 binding
[13] = 5-HT4(c), COS-7 membranes, [3H]GR113808 at 50% of Kd, read-out: Ki, competition for [3H]GR113808 binding
[14] = read-out: Ki, competition for [3H]GR113808 binding

`COc1cc(N)c(Cl)cc1C(=O)NC1CCN2CCCC1C2` (single isomer, unassigned; (+)) [Renzapride, (+)endo-4-amino-5-chloro-2-methoxy-N-(1-azabicyclo[3.3.1]non-4-yl)benzamide, hydrochloride] was tested, and the “effect on basal adenylate cyclase activity / basal cAMP levels” value [1] was “no significant effect” and the “increase in cAMP concentration” value [2] was 56%.

Work on `COc1ccc2[nH]cc(CCN)c2c1` [5-MeOT, 5-methoxytryptamine] yielded a Ki [3, 10] of 2080 ± 508 nM, a Ki [4, 11] of 2440 ± 510 nM and a Ki [5, 12] of 553 ± 149 nM. The Ki [6, 13] was 1020 ± 236 nM.

For `CCn1c(=O)n(C(=O)N[C@H]2C[C@H]3CC[C@@H](C2)N3C)c2ccccc21` [BIMU1], the Ki [3] was 373 ± 119 nM, the Ki [4] was 123 ± 9 nM and the Ki [5] was 38.8 ± 12 nM. The Ki [6] was 66 ± 8.37 nM.

For `Cn1cc(C(=O)OCC2CCN(CCNS(C)(=O)=O)CC2)c2ccccc21` [GR113808, ([1-[2-(methylsulphonyl)amino]ethyl]-4-piperidyl)methyl 1-methyl-1H-indole-3-carboxylate], the Ki [3, 10] was 0.33 ± 0.033 nM, the Ki [4, 11] was 0.53 ± 0.1 nM and the Ki [5, 12] was 0.078 nM. For the same compound, the Ki [6, 13] was 0.41 ± 0.13 nM.

In the case of `COc1cc(N)c(Cl)cc1C(=O)OCCN1CCCCC1` [ML10302, 2-(1-piperidyl)ethyl 4-amino-5-chloro-2-methoxy-benzoate], the “effect on basal adenylate cyclase activity / basal cAMP levels” value [1] is reported as “no significant effect”, the “stimulatory effect on cAMP as % of the stimulatory effect of 5-HT” value ([7]; 1 μM, COS-7 cells expressing the isoforms of the receptor 5-HT4) is reported as 28 to 34% and the “antagonism of the capacity of 5-HT (1 μM) to increase basal cAMP levels” value ([7]; preincubation with 1 μM prior to 5-HT, COS-7 cells expressing the isoforms) is reported as “significantly antagonizes”.

For `COc1cc(N)c(Cl)cc1C(=O)NC1CN2CCC1CC2` (stereo not drawn) [Zacopride, 4-amino-5-chloro-2-methoxy-N-(1-azabicyclo-[2,2,2]octo-3-yl)benzamide, hydrochloride], the Ki [3, 10] was 7750 ± 1620 nM, the Ki [4, 14] was 11500 ± 950 nM and the Ki [5, 12] was 3600 ± 1840 nM. It also gave a Ki [6, 14] of 10600 ± 2160 nM.

Compound `Cn1cc(C(=O)OCC2CCN(CCNS(C)(=O)=O)CC2)c2ccccc21` [[^3H]GR113808] has a Kd [8] of 0.23 ± 0.03 nM, a Kd [9] of 0.42 ± 0.04 nM and a Kd ([3]; 5-HT4(a), COS-7 membranes, 30 minutes at 25° C., read-out: Kd, saturation analysis) of 0.23 ± 0.06 nM. It also gave a Kd ([4]; 5-HT4(b), COS-7 membranes, 30 minutes at 25° C., read-out: Kd, saturation analysis) of 0.62 ± 0.05 nM, a Kd ([5]; 5-HT4(d), COS-7 membranes, 30 minutes at 25° C., read-out: Kd, saturation analysis) of 0.14 ± 0.05 nM and a Kd ([6]; 5-HT4(c), COS-7 membranes, 30 minutes at 25° C., read-out: Kd, saturation analysis) of 0.3 ± 0.08 nM.

Source: patent publication US6506580B1, “Splice variants for human 5-HT4 serotonin receptor and their applications, in particular for screening” (Institut National de la Sante et de la Recherche Medicale …, priority 1997, dated 2003)
